According to ChEMBL document CHEMBL2331404, “Mono-/dihydroxybenzoic acid esters and phenol pyridinium derivatives as inhibitors of the mammalian carbonic anhydrase isoforms I, II, VII, IX, XII and XIV” (Bioorg Med Chem, 2013):

What was measured:
Carbonic anhydrase 2 = Carbonic anhydrase 2 (Homo sapiens, UniProt P00918)
Description: Inhibition of human carbonic anhydrase 2 preincubated for 15 mins by CO2 hydration stopped-flow assay

Carbonic anhydrase 9 = Carbonic anhydrase 9 (Homo sapiens, UniProt Q16790)
Description: Inhibition of human carbonic anhydrase 9 preincubated for 15 mins by CO2 hydration stopped-flow assay

Carbonic anhydrase 7 = Carbonic anhydrase 7 (Homo sapiens, UniProt P43166); assay: Inhibition of human carbonic anhydrase 7 preincubated for 15 mins by CO2 hydration stopped-flow assay
Chain of Carbonic anhydrase 7 (P43166 whole entry): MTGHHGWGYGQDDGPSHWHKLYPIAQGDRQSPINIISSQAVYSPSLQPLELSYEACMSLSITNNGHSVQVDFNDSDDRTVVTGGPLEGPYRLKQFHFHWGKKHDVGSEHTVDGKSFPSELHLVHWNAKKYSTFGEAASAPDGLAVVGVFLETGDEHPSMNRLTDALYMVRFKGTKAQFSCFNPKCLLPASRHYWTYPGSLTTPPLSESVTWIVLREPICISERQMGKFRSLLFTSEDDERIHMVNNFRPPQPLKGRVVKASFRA

Carbonic anhydrase 1 = Carbonic anhydrase 1 (Homo sapiens, UniProt P00915)
Chain of Carbonic anhydrase 1 (P00915 whole entry): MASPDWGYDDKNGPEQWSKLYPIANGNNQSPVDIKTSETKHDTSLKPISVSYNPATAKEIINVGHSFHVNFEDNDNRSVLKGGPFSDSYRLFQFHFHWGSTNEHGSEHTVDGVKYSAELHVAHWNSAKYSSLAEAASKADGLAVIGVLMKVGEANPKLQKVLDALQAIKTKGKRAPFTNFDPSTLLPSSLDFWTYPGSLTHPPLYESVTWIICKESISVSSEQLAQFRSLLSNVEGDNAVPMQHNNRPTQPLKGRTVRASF
Description: Inhibition of human carbonic anhydrase 1 preincubated for 15 mins by CO2 hydration stopped-flow assay

Carbonic anhydrase 14 = Carbonic anhydrase 14 (Homo sapiens, UniProt Q9ULX7)
Chain of Carbonic anhydrase 14 (Q9ULX7 whole entry): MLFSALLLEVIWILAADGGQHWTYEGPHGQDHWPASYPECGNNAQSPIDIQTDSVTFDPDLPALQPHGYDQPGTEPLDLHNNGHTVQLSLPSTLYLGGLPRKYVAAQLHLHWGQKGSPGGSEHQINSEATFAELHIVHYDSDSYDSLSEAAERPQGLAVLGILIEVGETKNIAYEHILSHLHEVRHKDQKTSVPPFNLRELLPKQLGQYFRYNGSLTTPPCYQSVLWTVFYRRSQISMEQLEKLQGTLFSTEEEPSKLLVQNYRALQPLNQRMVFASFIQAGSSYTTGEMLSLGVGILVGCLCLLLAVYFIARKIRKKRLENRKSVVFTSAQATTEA
Description: Inhibition of human carbonic anhydrase 14 preincubated for 15 mins by CO2 hydration stopped-flow assay

Carbonic anhydrase 12 = Carbonic anhydrase 12 (Homo sapiens, UniProt O43570)
Chain of Carbonic anhydrase 12 (O43570 whole entry): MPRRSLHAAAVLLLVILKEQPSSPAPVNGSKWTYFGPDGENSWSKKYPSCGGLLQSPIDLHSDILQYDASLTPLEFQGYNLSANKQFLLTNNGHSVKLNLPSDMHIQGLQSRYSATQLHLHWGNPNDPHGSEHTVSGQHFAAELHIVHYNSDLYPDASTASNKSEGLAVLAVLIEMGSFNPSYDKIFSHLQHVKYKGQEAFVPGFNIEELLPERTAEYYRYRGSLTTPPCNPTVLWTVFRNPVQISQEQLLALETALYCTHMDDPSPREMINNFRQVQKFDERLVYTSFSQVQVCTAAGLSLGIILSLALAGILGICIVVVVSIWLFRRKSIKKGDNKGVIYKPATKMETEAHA

SMILES	Ki (Carbonic anhydrase 2)	Ki (Carbonic anhydrase 9)	Ki (Carbonic anhydrase 7)	Ki (Carbonic anhydrase 1)	Ki (Carbonic anhydrase 14)	Ki (Carbonic anhydrase 12)
CC(C)OC(=O)c1cc(O)ccc1O	580 nM	810 nM	–	–	–	–
CC(C)OC(=O)c1c(O)cccc1O	530 nM	790 nM	–	–	–	–
O=C(O)c1cc(-c2c3ccc(=O)cc-3oc3cc(O)ccc23)ccc1NC(=S)NCCc1ccc(O)c(O)c1	4400 nM	6700 nM	–	–	–	–
Cc1cc(C)[n+](CCc2ccccc2C)c(C)c1	6800 nM	830 nM	–	–	–	–
Cc1cc(C)[n+](CCc2ccccc2-c2ccccc2)c(C)c1	4700 nM	710 nM	–	–	–	–
Nc1cc(O)ccc1Cl	4900 nM	4700 nM	–	–	–	–
CCOC(=O)c1cc(O)cc(O)c1	660 nM	910 nM	–	–	–	–
O=C(O)c1c(O)cccc1O	5200 nM	5900 nM	6600 nM	5700 nM	6500 nM	7200 nM
COc1ccc(OC)cc1 [1,4-DIMETHOXYBENZENE]	–	–	3880 nM	–	6790 nM	–
O=C(O)c1ccc(O)cc1O [2,4-DIHYDROXYBENZOIC ACID]	4900 nM	68000 nM	72000 nM	5200 nM	70000 nM	7500 nM
O=C(O)c1cc(O)cc(O)c1 [3,5-DIHYDROXYBENZOIC ACID]	–	–	7170 nM	–	650 nM	–
Nc1cccc(O)c1 [3-AMINOPHENOL]	4700 nM	4900 nM	5900 nM	4900 nM	7200 nM	7700 nM
CCOC(=O)c1ccc(O)cc1 [ETHYLPARABEN]	4800 nM	8200 nM	8700 nM	7900 nM	7700 nM	8600 nM
O=C(O)c1cc(O)ccc1O [GENTISIC ACID]	–	6600 nM	68000 nM	4200 nM	67000 nM	7300 nM
CC(C)OC(=O)c1ccc(O)cc1 [ISOPROPYL 4-HYDROXYBENZOATE]	4400 nM	7400 nM	–	–	–	–
O=C(O)c1ccc(O)c(O)c1 [PROTOCATECHUIC ACID]	–	–	7870 nM	–	690 nM	–
COc1ccc(C(=O)O)cc1OC [VERATRIC ACID]	–	–	7150 nM	–	740 nM	–

The next lines start with the values.

Ki (Carbonic anhydrase 2)	Ki (Carbonic anhydrase 9)	Ki (Carbonic anhydrase 7)	Ki (Carbonic anhydrase 1)	Ki (Carbonic anhydrase 14)	Ki (Carbonic anhydrase 12)	SMILES
690 nM	–	–	–	–	–	CCOC(=O)c1cc(O)ccc1O
700 nM	810 nM	–	–	–	–	COC(=O)c1c(O)cccc1O
560 nM	780 nM	–	–	–	–	CCOC(=O)c1c(O)cccc1O
420 nM	800 nM	–	–	–	–	CC(C)OC(=O)c1ccc(O)c(O)c1
700 nM	900 nM	–	–	–	–	CC(C)OC(=O)c1cc(O)cc(O)c1
320 nM	680 nM	–	–	–	–	Cc1cc(C)[n+](-c2cccc(O)c2)c(C)c1
490 nM	700 nM	–	–	–	–	Cc1cc(C)[n+](-c2cc(O)ccc2Cl)c(C)c1
510 nM	310 nM	–	–	–	–	CC(C)OC(=O)c1ccc(O)cc1O
520 nM	820 nM	–	–	–	–	CCOC(=O)c1ccc(O)cc1O
610 nM	780 nM	–	–	–	–	CCOC(=O)c1ccc(O)c(O)c1
710 nM	610 nM	–	–	–	–	CCOC(=O)/C=C/c1ccc(O)cc1 [ETHYL P-COUMARATE]
520 nM	680 nM	690 nM	540 nM	730 nM	760 nM	CC(C)OC(=O)/C=C/c1ccc(O)cc1 [ISOPROPYL 3-(4-HYDROXYPHENYL)ACRYLATE]
760 nM	890 nM	850 nM	830 nM	860 nM	950 nM	COC(=O)c1ccc(O)cc1O [METHYL 2,4-DIHYDROXYBENZOATE]
770 nM	840 nM	–	–	–	–	COC(=O)c1cc(O)ccc1O [METHYL 2,5-DIHYDROXYBENZOATE]
690 nM	810 nM	–	–	–	–	COC(=O)c1cc(O)cc(O)c1 [METHYL 3,5-DIHYDROXYBENZOATE]
800 nM	850 nM	820 nM	780 nM	830 nM	810 nM	COC(=O)/C=C/c1ccc(O)cc1 [METHYL P-HYDROXYCINNAMATE]
580 nM	790 nM	–	–	–	–	COC(=O)c1ccc(O)c(O)c1 [METHYL PROTOCATECHUATE]
3400 nM	5500 nM	780 nM	2600 nM	4100 nM	820 nM	COC(=O)c1ccc(O)cc1 [METHYLPARABEN]
